Patent US20080090900A1, “ANTIBIOTIC BUSHRIN” (University of Karachi, priority 2006, published 2008)

Tested on: Clostridium sporogenes
Experiment: microbe, parasite or virus in culture
Format: cell-based

## Cc1cc(O)c2c(c1)C=CC(C)(c1ccoc1)C2 (stereo not shown) [Compound 1, 7-(3-furyl)-3,7-dimethyl-7,8-dihydro-1-naphthalenol]
  antibacterial activity: less active
